Assay results published in US8258138B2, “Potassium channel blockers” (Xention Limited, priority 2008, dated 2012).

Assays:
human Kv1.3 = biological target: T1, human Kv1.3 (Homo sapiens, UniProt P22001); experiment: Kv1.3 Autopatch electrophysiology (whole cell patch-clamp, inhibition of charge movement); format: cell-based; details: compound at 1 μM; cells stably transfected with human Kv1.3; room temperature; total charge during step to +30 mV relative to control; read-out: hKv1.3 % inh.
T1 construct: expressed in transfected cells; host or cells: stably transfected cells grown in medium for CHO cells
T1 sequence (P22001 whole entry): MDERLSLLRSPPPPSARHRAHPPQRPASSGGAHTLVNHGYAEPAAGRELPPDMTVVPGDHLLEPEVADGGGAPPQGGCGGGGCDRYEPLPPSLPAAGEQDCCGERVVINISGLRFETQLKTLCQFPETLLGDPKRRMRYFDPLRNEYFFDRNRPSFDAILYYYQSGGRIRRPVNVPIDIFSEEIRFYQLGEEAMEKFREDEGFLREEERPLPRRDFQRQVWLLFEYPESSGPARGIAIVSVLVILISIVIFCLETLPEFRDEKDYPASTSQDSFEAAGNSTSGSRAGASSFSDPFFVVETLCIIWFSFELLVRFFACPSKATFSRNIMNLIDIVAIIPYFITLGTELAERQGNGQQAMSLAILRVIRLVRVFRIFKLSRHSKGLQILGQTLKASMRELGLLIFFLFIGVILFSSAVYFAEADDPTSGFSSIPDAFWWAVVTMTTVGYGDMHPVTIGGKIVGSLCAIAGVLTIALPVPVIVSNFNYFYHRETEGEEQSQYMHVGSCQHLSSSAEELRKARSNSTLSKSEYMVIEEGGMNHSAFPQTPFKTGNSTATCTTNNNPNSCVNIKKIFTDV
Method in brief: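 Whole-cell AutoPatch recordings were made at room temperature from cells held at −80 mV, with 500 ms steps to +30 mV every 15 s. The bath contained 10 mM KCl, pH 7.4, and the pipette K-gluconate/EGTA, pH 7.2.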

hKv1.5 = hKv1.5 (Homo sapiens, UniProt P22460); experiment: Kv1.5 Autopatch electrophysiology (whole cell patch-clamp); format: cell-based; details: compound at 1 μM; room temperature (22-24° C.); total charge during step to 0 mV; read-out: hKv1.5 % inh.
Sequence of hKv1.5 (P22460 whole entry): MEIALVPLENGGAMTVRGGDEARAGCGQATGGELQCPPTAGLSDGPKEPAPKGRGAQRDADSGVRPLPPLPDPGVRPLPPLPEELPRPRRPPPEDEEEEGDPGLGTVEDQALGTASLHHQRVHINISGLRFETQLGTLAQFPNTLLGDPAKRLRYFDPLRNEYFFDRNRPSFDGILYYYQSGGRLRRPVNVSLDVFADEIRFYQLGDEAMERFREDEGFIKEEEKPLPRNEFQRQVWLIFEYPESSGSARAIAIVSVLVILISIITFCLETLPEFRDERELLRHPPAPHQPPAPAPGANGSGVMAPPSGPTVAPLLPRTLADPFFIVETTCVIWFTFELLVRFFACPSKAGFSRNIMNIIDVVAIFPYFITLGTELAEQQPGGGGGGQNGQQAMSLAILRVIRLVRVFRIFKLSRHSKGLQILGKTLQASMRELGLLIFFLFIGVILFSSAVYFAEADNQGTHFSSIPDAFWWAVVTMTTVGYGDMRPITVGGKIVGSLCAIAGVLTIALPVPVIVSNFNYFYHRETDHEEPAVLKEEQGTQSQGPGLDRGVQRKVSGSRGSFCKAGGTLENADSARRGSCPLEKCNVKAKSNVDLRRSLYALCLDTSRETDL
Procedure: Kv1.5 Autopatch Electrophysiology Method
The external bathing solution contained (in mM): 150 NaCl, 10 KCl, […], 3 MgCl2, 1 CaCl2, 10 HEPES, pH 7.4. Patch pipettes were filled with an electrode solution of composition (in mM): 160 KCl, 0.5 MgCl2, 10 HEPES, 1 EGTA, pH 7.4 with KOH.
Compounds were dissolved in DMSO (100%) and made up in the external bather at a concentration of 1 μM. All experiments were conducted at room temperature (22-24° C.).
A cell suspension (10 ml), with a density of 100,000 cells/ml, was aliquoted into a 15 ml centrifuge tube and transferred to an incubator (37° C., 5% CO2) for approximately one hour before use. Following 60 min incubation, a tube was taken and centrifuged at 1000 rpm for 4 mins at room temperature. 9.5 ml supernatant was thence discarded, leaving a cell pellet at the bottom of the tube. The pellet was then resuspended using 100 μl of cold (4° C.), filtered (0.22 μm), 0.2% BSA/bather solution (0.02 g BSA/10 ml bather). The bottom of the tube was manually agitated gently until the solution became cloudy with cells. The 100 μl cell resuspension solution was then stored on the bench at 4° C. (using a Peltier-based temperature control device) until used.
A length of capillary glass (1B150F-4, WPI) was dipped into the cell suspension solution, such that ˜3 cm column of fluid was taken up by capillary action. A Ag/AgCl wire was dropped into the non-dipped end of the capillary also. The outside of the solution-filled end of the capillary was then dried and the capillary was loaded into the AutoPatch™.
Borosilicate glass patch pipettes (from 1.5 mm OD, thin-walled filamented, GC150-TF capillary glass, Harvard) were pulled using a DMZ pipette puller (Zeitz Instruments), and were back-filled using the internal pipette solution, being careful that no bubbles remain at the tip or in the body of the pipette. Patch pipettes typically had resistances of 2.3-3.5 MΩ. Once filled, the pipette tip and a proportion of the shaft (˜15 mm) were dipped into Sigmacote (Sigma). The recording pipette was then loaded into the AutoPatch™ Automated patch-clamping was initiated by the operator, but thereafter AutoPatch.exe continued the experiment providing that pre-set conditions and criteria were satisfied.
Whole cell patch-clamp recordings were made using the AutoPatch™ rig, which incorporated an EPC9 amplifier (HEKA, Germany) under control of Pulse software (v8.54, HEKA, Germany), a motion controller with 2 translators (Newport, UK), valve controller (VF1) and a c-level suction device all at room temperature (22-24° C.). This equipment was completely under the control of AutoPatch.exe and operator intervention was only made when there was a requirement to refill the drug reservoirs or to prevent the loss of a cell due to a technical error. Cells with an Rseries greater than 18 MΩ were discounted from the experiment.
Qualification stages prior to perfusion and drug application ensured that the observed current met the criteria for the experiment. Only those cells with an IK>500 pA were used for experiments. Cells were continuously perfused with external solution at a flow rate of 1.8-2 ml/minute. […] Online analysis of the hKv1.5 current during the application of compounds was performed by the AutoPatch™ software. Voltage-step protocols and analysis of data was performed as described for conventional electrophysiology.
Electrophysiology voltage-step protocols and analysis of data was performed as follows. Data was sampled at 5 kHz, and filtered with a −3 dB bandwidth of 2.5 kHz. Cells were held at a voltage of −80 mV. Currents were evoked to a voltage step for 1000 ms in duration at 0 mV every 5 s. Currents were analysed using Pulsefit software (v8.54, HEKA, Germany), with the total charge measured during the whole of the voltage step. All other plots were produced using Igor Pro (WaveMetrics).

| Compound | inhibition at 1 µM (human Kv1.3) | inhibition at 1 µM (hKv1.5) |
| --- | --- | --- |
| O=C(c1ccc(N(Cc2ccccc2)S(=O)(=O)c2ccccc2)cc1)N1CCC(O)(Cc2ccccc2)CC1 [Example 59, N-Benzyl-N-[4-(4-benzyl-4-hydroxy-piperidine-1-carbonyl)-phenyl]-benzenesulfonamide] | 87% | 40.1% |
| Cn1cnc(S(=O)(=O)N(Cc2ccc(Cl)cc2)c2ccc(C(=O)N3CCCC(c4ccccc4)C3)cc2)c1 (centres unmarked) [Example 61, 1-Methyl-1H-imidazole-4-sulfonic acid (4-chloro-benzyl)-[4-(3-phenyl-piperidine-1-carbonyl)-phenyl]-amide] | 89% | 67.5% |
| Cn1cnc(S(=O)(=O)N(Cc2ccc(Cl)cc2)c2ccc(C(=O)N3CCCC(Oc4ccccc4)C3)cc2)c1 (centres unmarked) [Example 62, 1-Methyl-1H-imidazole-4-sulfonic acid (4-chloro-benzyl)-[4-(3-phenoxy-piperidine-1-carbonyl)-phenyl]-amide] | 64% | 52.4% |
| Cn1cnc(S(=O)(=O)N(Cc2ccccc2)c2ccc(C(=O)N3CCOC(c4ccccc4)C3)cc2)c1 (centres unmarked) [Example 63, 1-Methyl-1H-imidazole-4-sulfonic acid benzyl-[4-(2-phenyl-morpholine-4-carbonyl)-phenyl]-amide] | 93% | 74.4% |
| Cn1cnc(S(=O)(=O)N(Cc2ccc(F)cc2)c2ccc(C(=O)N3CCOC(c4ccccc4)C3)cc2)c1 (centres unmarked) [Example 66, 1-Methyl-1H-imidazole-4-sulfonic acid (4-fluoro-benzyl)-[4-(2-phenyl-morpholine-4-carbonyl)-phenyl]-amide] | 55% | 69% |
| Cn1cnc(S(=O)(=O)N(Cc2ccccc2)c2ccc(C(=O)N3CCOC(c4ccccc4)C3)cc2F)c1 (centres unmarked) [Example 68, 1-Methyl-1H-imidazole-4-sulfonic acid benzyl-[2-fluoro-4-(2-phenyl-morpholine-4-carbonyl)-phenyl]-amide] | 90% | 62.8% |
| Cn1nccc1S(=O)(=O)N(Cc1ccccc1)c1ccc(C(=O)N2CCOC(c3ccccc3)C2)cc1 (centres unmarked) [Example 85, 2-Methyl-2H-pyrazole-3-sulfonic acid benzyl-[4-(2-phenyl-morpholine-4-carbonyl)-phenyl]-amide] | 94% | 47% |
| O=C(c1ccc(N(Cc2ccc(Cl)cc2)S(=O)(=O)c2cccnc2)cc1)N1CCCCC1 [Example 87, Pyridine-3-sulfonic acid (4-chloro-benzyl)-[4-(piperidine-1-carbonyl)-phenyl]-amide] | 62% | 56% |
| CN1CCN(C(=O)c2ccc(N(Cc3ccccc3)S(=O)(=O)c3ccn(C)n3)cc2)CC1c1ccccc1 (centres unmarked) [Example 90, 1-Methyl-1H-pyrazole-3-sulfonic acid benzyl-[4-(4-methyl-3-phenyl-piperazine-1-carbonyl)-phenyl]-amide] | 76% | 40.8% |
| Cn1cnc(S(=O)(=O)N(Cc2cccc(Cl)c2)c2ccc(C(=O)N3CCCCC3)cc2)c1 [Example 93, 1-Methyl-1H-imidazole-4-sulfonic acid (3-chloro-benzyl)-[4-(piperidine-1-carbonyl)-phenyl]-amide] | 67% | 43.4% |
